Experimental data as given in patent publication US20240092758A1, “IMIDAZOLO INDAZOLE COMPOUNDS AS JAK INHIBITORS” (Theravance Biopharma R&D IP, LLC, priority 2021, published 2024).

What was measured:
[1] = Pharmacokinetics in plasma and lung in mouse after oral aspiration administration; assay type: in vivo; details: male CD1 mice; for Lung Tissue AUC(0-24) / AUC(0-t): 0.2 mg/mL, two 25 μL increments; for Lung Tissue:Plasma AUC ratio: lung AUC to plasma AUC; for AUC(0-t): mouse, inhaled or intranasal, 0.01 mg/mouse, plasma, read-out: Plasma AUC(0-24)
Method: Plasma and lung concentrations of test compounds were quantified and pharmacokinetic parameters were calculated in the following manner. Male CD1 mice from Charles River Laboratories were used in the pharmacokinetic studies. Test compounds were individually formulated in 20% propylene glycol in pH 4 citrate buffer at a concentration of 0.2 mg/mL. Test compounds were administered in two, 25 μL increments introduced into the trachea of each mouse by oral aspiration using a calibrated pipette once the animal was anesthetized using isoflurane. Blood samples were collected as terminal collections via cardiac puncture at 0.167, 1, 4, 8, and 24 hr post-dosing. Following […] with CO2, a direct cardiac puncture was performed while avoiding puncturing the lung and blood was immediately transferred into K2EDTA tubes and placed on wet ice. Blood samples were centrifuged (Eppendorf centrifuge, 5804R) for 4 minutes at approximately 12,000 rpm at 4° C. to collect plasma. Intact lungs were also excised from these mice using the same timepoints (0.167, 1, 4, 8, and 24 hr). Lungs were washed with sterile water to remove any blood residue and were patted dry, weighed, and homogenized in 0.1% formic acid in water at a dilution of 1:3 (lung:water, weight/volume). Plasma and lung concentrations of test compounds were determined by LC-MS/MS analysis against analytical standards constructed into a standard curve in the test matrix. The pharmacokinetic parameters of test compounds were determined by non-compartmental analysis. For concentrations below the limit of quantification, zero was used for mean calculations. Mean values were not reported if more than 50% of the samples were below the limit of quantification at a timepoint, or if more than 50% of a calculated pharmacokinetic parameter was not reportable. The area under the concentration-time curve extrapolated to infinity (AUC(0-inf)) was calculated as follows: AUC(0-inf)=AUC(0-t)+Clast/k, where AUC(0-t) is the area under the concentration-time curve from the time of dosing to the last measurable concentration calculated by the linear trapezoidal rule, Clast is the last measurable concentration, and k is the first order rate constant associated with the terminal elimination phase, estimated by linear regression of time versus log concentration. The lung-to-plasma AUC ratio was determined as the ratio of the lung AUC(0-inf) in μg*hr/g to the plasma AUC(0-inf) in μg*hr/mL.

JAK1 = JAK1 (Homo sapiens (Human), UniProt P23458); assay: Biochemical JAK kinase assay (LanthaScreen), JAK1; details: for Ki: read-out: JAK1 pKi (converted)
Procedure, shortened: (§1)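 LanthaScreen format: phospho-STAT1 (pTyr701) detected with 2 nM Tb antibody after 10 mM EDTA quench. Kinase step used Km-level ATP and 200 nM STAT1 peptide, 1 h at ambient after 1 h pre-incubation. Inhibition fitted to IC50, reported as pKi.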

[2] = system: IL-13 induced STAT6 phosphorylation in BEAS-2B human lung epithelial cells; assay: Cellular JAKI potency assay (BEAS-2B); assay type: cell-based; details: Homo sapiens, BEAS-2B, BEAS-2B cells, read-out: BEAS2B pIC50 (converted)
Procedure, shortened: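 AlphaLISA SureFire detection of Tyr641 pSTAT6 in lysates gave IC50s (4-parameter fit, expressed as pIC50). Cells: human BEAS-2B, exposed 1 h at 37 °C to compound dose series at 0.1% DMSO, then 30 min to IL-13 added at 80 ng/mL in HEPES-buffered HBSS with BSA.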

JAK2 = JAK2 (Homo sapiens (Human), UniProt O60674); assay: Biochemical JAK kinase assay (LanthaScreen), JAK2; details: for Ki: read-out: JAK2 pKi (converted)
Procedure, shortened: as §1

JAK3 = JAK3 (Homo sapiens (Human), UniProt P52333); assay: Biochemical JAK kinase assay (LanthaScreen), JAK3; details: read-out: JAK3 pKi (converted)
Method: (§2) A panel of four LanthaScreen JAK biochemical assays (JAK1, 2, 3 and Tyk2) were carried in a common kinase reaction buffer (50 mM HEPES, pH 7.5, 0.01% Brij-35, 10 mM MgCl2, and 1 mM EGTA). Recombinant GST-tagged JAK enzymes and a GFP-tagged STAT1 peptide substrate were obtained from Life Technologies.
(§3) Serially diluted compounds were pre-incubated with each of the four JAK enzymes and the substrate in white 384-well microplates (Corning) at ambient temperature for 1 h. ATP was subsequently added to initiate the kinase reactions in 10 μL total volume, with 1% DMSO. The final enzyme concentrations for JAK1, 2, 3 and Tyk2 are 4.2 nM, 0.1 nM, 1 nM, and 0.25 nM respectively; the corresponding Km ATP concentrations used are 25 μM, 3 μM, 1.6 μM, and 10 μM; while the substrate concentration is 200 nM for all four assays. Kinase reactions were allowed to proceed for 1 hour at ambient temperature before a 10 μL preparation of EDTA (10 mM final concentration) and Tb-anti-pSTAT1 (pTyr701) antibody (Life Technologies, 2 nM final concentration) in TR-FRET dilution buffer (Life Technologies) was added. The plates were allowed to incubate at ambient temperature for 1 h before being read on the EnVision reader (Perkin Elmer). Emission ratio signals (520 nm/495 nm) were recorded and utilized to calculate the percent inhibition values based on DMSO and background controls.
(§4) For dose-response analysis, percent inhibition data were plotted vs. compound concentrations, and IC50 values were determined from a 4-parameter robust fit model with the Prism software (GraphPad Software). Results were expressed as pIC50 (negative logarithm of IC50) and subsequently converted to pKi (negative logarithm of dissociation constant, Ki) using the Cheng-Prusoff equation.
(§5) Test compounds having a lower Ki value or higher pKi value in the four JAK assays show greater inhibition of JAK activity.

TYK2 = TYK2 (Homo sapiens (Human), UniProt P29597); assay: Biochemical JAK kinase assay (LanthaScreen), Tyk2; details: read-out: Tyk2 pKi (converted)
Method: as §2, §3, §4, §5

TYK2, sequence (P29597 whole entry): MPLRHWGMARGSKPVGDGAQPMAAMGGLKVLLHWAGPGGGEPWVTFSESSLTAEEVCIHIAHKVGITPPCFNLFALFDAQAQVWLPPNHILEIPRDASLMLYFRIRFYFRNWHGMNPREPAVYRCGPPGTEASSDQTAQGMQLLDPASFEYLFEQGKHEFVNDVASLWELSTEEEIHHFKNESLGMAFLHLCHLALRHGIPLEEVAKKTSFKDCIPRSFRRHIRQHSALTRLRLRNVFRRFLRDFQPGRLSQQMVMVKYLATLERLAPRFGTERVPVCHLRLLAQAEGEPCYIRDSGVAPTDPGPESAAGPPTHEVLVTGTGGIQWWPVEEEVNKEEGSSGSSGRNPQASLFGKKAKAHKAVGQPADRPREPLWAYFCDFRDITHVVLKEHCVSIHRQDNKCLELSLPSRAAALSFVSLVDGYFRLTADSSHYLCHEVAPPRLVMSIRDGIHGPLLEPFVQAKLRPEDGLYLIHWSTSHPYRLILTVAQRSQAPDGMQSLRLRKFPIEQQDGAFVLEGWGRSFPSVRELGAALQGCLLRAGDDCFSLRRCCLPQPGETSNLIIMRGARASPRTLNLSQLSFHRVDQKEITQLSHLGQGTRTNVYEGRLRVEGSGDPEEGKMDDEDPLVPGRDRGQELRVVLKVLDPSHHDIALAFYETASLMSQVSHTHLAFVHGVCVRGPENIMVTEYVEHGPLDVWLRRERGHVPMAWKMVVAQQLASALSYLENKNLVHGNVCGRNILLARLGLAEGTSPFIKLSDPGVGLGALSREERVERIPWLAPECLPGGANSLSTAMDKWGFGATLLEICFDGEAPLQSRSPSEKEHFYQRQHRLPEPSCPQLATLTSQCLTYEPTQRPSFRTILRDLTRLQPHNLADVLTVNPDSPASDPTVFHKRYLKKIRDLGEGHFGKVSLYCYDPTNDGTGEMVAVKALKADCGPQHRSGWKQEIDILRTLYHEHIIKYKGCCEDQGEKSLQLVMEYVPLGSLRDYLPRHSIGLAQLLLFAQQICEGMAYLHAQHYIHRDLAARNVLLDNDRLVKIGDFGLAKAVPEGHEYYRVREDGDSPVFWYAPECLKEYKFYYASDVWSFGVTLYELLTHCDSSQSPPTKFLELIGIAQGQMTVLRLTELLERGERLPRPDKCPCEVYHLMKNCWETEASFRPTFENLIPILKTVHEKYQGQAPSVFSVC
JAK3, sequence (P52333 whole entry): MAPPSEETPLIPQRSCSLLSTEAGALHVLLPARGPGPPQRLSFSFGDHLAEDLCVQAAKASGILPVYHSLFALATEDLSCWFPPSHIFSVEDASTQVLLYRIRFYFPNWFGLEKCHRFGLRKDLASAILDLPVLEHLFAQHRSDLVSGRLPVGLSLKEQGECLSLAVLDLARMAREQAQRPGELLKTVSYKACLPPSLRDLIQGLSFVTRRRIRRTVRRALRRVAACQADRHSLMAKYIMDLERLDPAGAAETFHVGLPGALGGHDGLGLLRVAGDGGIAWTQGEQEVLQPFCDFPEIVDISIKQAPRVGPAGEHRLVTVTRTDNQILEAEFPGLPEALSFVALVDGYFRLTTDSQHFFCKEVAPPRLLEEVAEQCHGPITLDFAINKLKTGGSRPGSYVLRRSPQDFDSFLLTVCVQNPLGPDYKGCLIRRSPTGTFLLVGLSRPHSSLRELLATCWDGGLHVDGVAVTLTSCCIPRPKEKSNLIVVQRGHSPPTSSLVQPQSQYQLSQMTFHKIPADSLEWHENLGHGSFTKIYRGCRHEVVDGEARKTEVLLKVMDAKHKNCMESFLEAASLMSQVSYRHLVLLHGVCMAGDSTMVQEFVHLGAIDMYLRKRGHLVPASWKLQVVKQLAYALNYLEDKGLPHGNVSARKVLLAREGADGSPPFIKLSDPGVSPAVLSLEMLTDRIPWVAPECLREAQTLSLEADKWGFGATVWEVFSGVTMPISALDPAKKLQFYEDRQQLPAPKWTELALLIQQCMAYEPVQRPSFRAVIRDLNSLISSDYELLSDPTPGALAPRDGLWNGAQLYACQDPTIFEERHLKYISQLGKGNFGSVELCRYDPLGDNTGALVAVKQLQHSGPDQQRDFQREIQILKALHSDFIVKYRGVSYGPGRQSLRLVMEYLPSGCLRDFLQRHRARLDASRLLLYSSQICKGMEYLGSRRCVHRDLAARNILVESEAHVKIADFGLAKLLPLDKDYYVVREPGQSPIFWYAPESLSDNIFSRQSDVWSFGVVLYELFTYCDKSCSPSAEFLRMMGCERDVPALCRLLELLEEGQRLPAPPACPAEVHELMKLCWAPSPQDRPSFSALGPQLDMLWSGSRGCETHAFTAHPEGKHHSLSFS
JAK2, sequence (O60674 whole entry): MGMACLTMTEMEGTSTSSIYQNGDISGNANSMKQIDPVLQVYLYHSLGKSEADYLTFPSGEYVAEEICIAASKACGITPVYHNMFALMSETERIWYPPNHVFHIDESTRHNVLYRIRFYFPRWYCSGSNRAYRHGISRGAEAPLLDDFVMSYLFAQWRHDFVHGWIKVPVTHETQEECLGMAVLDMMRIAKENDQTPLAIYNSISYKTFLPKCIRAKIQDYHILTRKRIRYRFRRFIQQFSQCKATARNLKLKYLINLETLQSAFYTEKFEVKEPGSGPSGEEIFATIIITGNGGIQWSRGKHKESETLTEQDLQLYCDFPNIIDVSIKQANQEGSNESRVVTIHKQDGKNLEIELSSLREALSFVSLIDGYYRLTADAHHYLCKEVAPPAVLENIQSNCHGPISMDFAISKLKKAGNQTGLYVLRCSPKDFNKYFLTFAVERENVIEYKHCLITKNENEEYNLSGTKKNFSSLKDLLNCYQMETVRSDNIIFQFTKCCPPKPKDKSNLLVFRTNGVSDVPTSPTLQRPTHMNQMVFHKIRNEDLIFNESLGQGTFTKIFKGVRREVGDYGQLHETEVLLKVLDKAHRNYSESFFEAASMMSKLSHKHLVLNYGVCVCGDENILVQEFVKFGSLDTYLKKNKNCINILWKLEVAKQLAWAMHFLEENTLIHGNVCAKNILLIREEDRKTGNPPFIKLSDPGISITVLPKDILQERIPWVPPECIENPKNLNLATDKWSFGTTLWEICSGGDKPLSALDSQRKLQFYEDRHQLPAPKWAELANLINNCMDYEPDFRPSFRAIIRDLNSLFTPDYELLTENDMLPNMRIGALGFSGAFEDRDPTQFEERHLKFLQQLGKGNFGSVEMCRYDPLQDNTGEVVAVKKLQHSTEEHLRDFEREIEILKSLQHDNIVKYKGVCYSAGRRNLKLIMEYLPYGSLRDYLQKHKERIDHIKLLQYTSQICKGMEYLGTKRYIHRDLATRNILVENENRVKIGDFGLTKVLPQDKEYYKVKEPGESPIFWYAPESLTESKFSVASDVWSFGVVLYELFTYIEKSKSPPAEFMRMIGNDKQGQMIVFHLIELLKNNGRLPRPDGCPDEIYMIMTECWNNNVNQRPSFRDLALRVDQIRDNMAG
JAK1, sequence (P23458 whole entry): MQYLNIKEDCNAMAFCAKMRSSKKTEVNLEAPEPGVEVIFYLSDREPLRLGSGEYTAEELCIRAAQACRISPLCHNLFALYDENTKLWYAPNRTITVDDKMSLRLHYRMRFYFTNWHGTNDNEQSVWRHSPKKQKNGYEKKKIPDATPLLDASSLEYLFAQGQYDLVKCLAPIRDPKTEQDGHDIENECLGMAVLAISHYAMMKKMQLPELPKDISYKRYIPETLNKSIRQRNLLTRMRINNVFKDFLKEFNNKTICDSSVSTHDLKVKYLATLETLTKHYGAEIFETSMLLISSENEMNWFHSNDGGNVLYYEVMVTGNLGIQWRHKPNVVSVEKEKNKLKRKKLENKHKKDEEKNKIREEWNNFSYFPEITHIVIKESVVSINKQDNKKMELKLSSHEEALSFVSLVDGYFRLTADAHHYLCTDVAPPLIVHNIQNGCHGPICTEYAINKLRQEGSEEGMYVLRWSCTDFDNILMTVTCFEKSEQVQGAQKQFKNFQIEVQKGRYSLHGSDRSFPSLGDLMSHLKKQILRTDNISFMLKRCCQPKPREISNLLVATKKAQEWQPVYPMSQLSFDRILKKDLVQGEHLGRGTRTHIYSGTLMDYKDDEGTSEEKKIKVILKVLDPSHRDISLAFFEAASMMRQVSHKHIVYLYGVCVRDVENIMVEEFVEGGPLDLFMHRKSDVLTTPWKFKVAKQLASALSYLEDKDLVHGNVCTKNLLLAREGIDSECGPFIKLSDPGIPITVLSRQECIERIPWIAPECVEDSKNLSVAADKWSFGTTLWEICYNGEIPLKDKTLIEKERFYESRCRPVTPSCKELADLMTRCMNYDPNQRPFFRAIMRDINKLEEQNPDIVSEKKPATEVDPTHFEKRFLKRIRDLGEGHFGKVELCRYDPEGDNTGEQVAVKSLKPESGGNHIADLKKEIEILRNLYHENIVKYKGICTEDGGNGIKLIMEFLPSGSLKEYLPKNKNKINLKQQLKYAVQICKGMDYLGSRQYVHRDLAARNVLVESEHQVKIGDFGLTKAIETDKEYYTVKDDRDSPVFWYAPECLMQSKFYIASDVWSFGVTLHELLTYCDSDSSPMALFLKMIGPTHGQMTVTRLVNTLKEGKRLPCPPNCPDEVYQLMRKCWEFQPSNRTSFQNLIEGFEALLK

SMILES | Lung Tissue AUC(0-24) [1] | Lung Tissue:Plasma AUC ratio [1] | AUC(0-t) [1] [ng·h/mL] | Ki (JAK1) [nM] | IC50 [2] [nM] | JAK2 pKi (JAK2) | Ki (JAK3) [nM] | JAK1 pKi (JAK1) | Ki (TYK2) [nM] | Ki (JAK2) [nM]
CCc1cc(O)ccc1-c1ccc2c(-c3nc(C4=CCN(C(C)CO)CC4)c[nH]3)n[nH]c2c1F (stereo not shown) [Compound 13, 3-ethyl-4-(7-fluoro-3-(4-(1-(1-hydroxypropan-2-yl)-1,2,3,6-tetrahydropyridin-4-yl)-1H-imidazol-2-yl)-1H-indazol-6-yl)phenol] | B (B denotes a value between 50 and 100) | C (C denotes a ratio between 100 and 200) | 500 to 1000 | 0.1 to 1 | 3.16 to 10 | – | – | – | – | –
CCc1cc(O)ccc1-c1ccc2c(-c3nc(C4=CCN(C)CC4)c[nH]3)n[nH]c2c1 [Example 19] | – | – | – | – | 3.16 to 10 | A (A represents a pKi value ≥10 (Ki≤0.1 nM)) | 0.1 to 1 | A (A represents a pKi value ≥10 (Ki≤0.1 nM)) | 0.1 to 1 | –
CCc1cc(O)ccc1-c1ccc2c(-c3nc(C4=CCN(C(C)C)CC4)c[nH]3)n[nH]c2c1 [Example 20] | – | – | – | – | 3.16 to 10 | A (A represents a pKi value ≥10 (Ki≤0.1 nM)) | 0.1 to 1 | A (A represents a pKi value ≥10 (Ki≤0.1 nM)) | 1 to 10 | –
CCc1cc(O)ccc1-c1ccc2c(-c3nc(C4=CCN(CC)CC4)c[nH]3)n[nH]c2c1F [Example 23] | – | – | – | 0.1 to 1 | 3.16 to 10 | – | 0.1 to 1 | – | 1 to 10 | 0.1 to 1
CCCN1CC=C(c2c[nH]c(-c3n[nH]c4c(F)c(-c5ccc(O)cc5CC)ccc34)n2)CC1 [Example 24] | – | – | – | 0.1 to 1 | 3.16 to 10 | A (A represents a pKi value ≥10 (Ki≤0.1 nM)) | 0.1 to 1 | – | 1 to 10 | –
CCc1cc(O)ccc1-c1ccc2c(-c3nc(C4=CCN(CC(C)C)CC4)c[nH]3)n[nH]c2c1F [Example 25] | – | – | – | 0.1 to 1 | 10 to 31.6 | – | 0.1 to 1 | – | 10 to 100 | 0.1 to 1
CCc1cc(O)ccc1-c1ccc2c(-c3nc(C4=CCCN(C)C4)c[nH]3)n[nH]c2c1 [Example 27] | – | – | – | – | 3.16 to 10 | A (A represents a pKi value ≥10 (Ki≤0.1 nM)) | 0.1 to 1 | A (A represents a pKi value ≥10 (Ki≤0.1 nM)) | 1 to 10 | –
CCc1cc(O)ccc1-c1ccc2c(-c3nc(C4=CCCN(C)C4)c[nH]3)n[nH]c2c1F [Example 29] | – | – | – | 0.1 to 1 | 3.16 to 10 | – | 0.1 to 1 | – | 1 to 10 | 0.1 to 1
CCc1cc(O)ccc1-c1ccc2c(-c3nc(C4=CCN(C[C@H](C)CO)CC4)c[nH]3)n[nH]c2c1F [Example 38] | C (C denotes a value between 9 and 50) | D (D denotes a ratio between 50 and 100) | < 500 | – | 10 to 31.6 | – | – | A (A represents a pKi value ≥10 (Ki≤0.1 nM)) | – | 0.1 to 1
CCc1cc(O)ccc1-c1ccc2c(-c3nc(C4=CCN(CCC(C)(C)O)C4)c[nH]3)n[nH]c2c1 [Example 51] | C (C denotes a value between 9 and 50) | C (C denotes a ratio between 100 and 200) | < 500 | – | 3.16 to 10 | A (A represents a pKi value ≥10 (Ki≤0.1 nM)) | – | A (A represents a pKi value ≥10 (Ki≤0.1 nM)) | – | –
CCc1cc(O)ccc1-c1ccc2c(-c3nc(C4=CCN(C5CCNC5=O)C4)c[nH]3)n[nH]c2c1 (stereo not shown) [Example 94] | C (C denotes a value between 9 and 50) | E (E denotes a ratio between 30 and 50) | < 500 | 0.1 to 1 | 10 to 31.6 | A (A represents a pKi value ≥10 (Ki≤0.1 nM)) | – | – | – | –
CCc1cc(O)ccc1-c1ccc2c(-c3nc(C4=CCN(CCNS(C)(=O)=O)CC4)c[nH]3)n[nH]c2c1F [Example 106] | C (C denotes a value between 9 and 50) | C (C denotes a ratio between 100 and 200) | < 500 | 0.1 to 1 | 10 to 31.6 | A (A represents a pKi value ≥10 (Ki≤0.1 nM)) | – | – | – | –
CCc1cc(O)ccc1-c1ccc2c(-c3nc(C4=C(C)CCNC4)c[nH]3)n[nH]c2c1F [Example 236] | B (B denotes a value between 50 and 100) | C (C denotes a ratio between 100 and 200) | 500 to 1000 | 0.1 to 1 | 10 to 31.6 | – | – | – | – | 0.1 to 1
CCc1cc(O)ccc1-c1ccc2c(-c3nc(C4=C[C@H](COC)NC4)c[nH]3)n[nH]c2c1 [Example 241] | C (C denotes a value between 9 and 50) | D (D denotes a ratio between 50 and 100) | 500 to 1000 | 0.1 to 1 | 3.16 to 10 | – | – | – | – | 0.1 to 1
CCc1cc(O)ccc1-c1ccc2c(-c3nc(C4=C[C@H](CC(=O)N(C)C)NC4)c[nH]3)n[nH]c2c1F [Example 255] | A (For the Lung Tissue AUC(0-24), A denotes a value between 100 and 200) | D (D denotes a ratio between 50 and 100) | 1000 to 1500 | – | 10 to 31.6 | A (A represents a pKi value ≥10 (Ki≤0.1 nM)) | – | A (A represents a pKi value ≥10 (Ki≤0.1 nM)) | – | –
